Experimental data reported in ChEMBL document CHEMBL2073871, “Human P-glycoprotein transports cortisol, aldosterone, and dexamethasone, but not progesterone” (J Biol Chem, 1992).

How the values were obtained:
[1] = biological target: T1, ATP-dependent translocase ABCB1 (Homo sapiens, UniProt P08183); assay: TP_TRANSPORTER: transepithelial transport (basal to apical) in MDR1-expressing LLC-PK1 cells; type: functional, cell-based; settings: pig
[2] = biological target: T1, ATP-dependent translocase ABCB1; assay: TP_TRANSPORTER: inhibition of Cortisol transepithelial transport (basal to apical) (Cortisol: 0.011? uM, Progesterone: 50 uM) in MDR1-expressing LLC-PK1 cells; type: functional, cell-based; settings: pig, llc-pk1, 50 µM

T1 sequence (P08183 whole entry): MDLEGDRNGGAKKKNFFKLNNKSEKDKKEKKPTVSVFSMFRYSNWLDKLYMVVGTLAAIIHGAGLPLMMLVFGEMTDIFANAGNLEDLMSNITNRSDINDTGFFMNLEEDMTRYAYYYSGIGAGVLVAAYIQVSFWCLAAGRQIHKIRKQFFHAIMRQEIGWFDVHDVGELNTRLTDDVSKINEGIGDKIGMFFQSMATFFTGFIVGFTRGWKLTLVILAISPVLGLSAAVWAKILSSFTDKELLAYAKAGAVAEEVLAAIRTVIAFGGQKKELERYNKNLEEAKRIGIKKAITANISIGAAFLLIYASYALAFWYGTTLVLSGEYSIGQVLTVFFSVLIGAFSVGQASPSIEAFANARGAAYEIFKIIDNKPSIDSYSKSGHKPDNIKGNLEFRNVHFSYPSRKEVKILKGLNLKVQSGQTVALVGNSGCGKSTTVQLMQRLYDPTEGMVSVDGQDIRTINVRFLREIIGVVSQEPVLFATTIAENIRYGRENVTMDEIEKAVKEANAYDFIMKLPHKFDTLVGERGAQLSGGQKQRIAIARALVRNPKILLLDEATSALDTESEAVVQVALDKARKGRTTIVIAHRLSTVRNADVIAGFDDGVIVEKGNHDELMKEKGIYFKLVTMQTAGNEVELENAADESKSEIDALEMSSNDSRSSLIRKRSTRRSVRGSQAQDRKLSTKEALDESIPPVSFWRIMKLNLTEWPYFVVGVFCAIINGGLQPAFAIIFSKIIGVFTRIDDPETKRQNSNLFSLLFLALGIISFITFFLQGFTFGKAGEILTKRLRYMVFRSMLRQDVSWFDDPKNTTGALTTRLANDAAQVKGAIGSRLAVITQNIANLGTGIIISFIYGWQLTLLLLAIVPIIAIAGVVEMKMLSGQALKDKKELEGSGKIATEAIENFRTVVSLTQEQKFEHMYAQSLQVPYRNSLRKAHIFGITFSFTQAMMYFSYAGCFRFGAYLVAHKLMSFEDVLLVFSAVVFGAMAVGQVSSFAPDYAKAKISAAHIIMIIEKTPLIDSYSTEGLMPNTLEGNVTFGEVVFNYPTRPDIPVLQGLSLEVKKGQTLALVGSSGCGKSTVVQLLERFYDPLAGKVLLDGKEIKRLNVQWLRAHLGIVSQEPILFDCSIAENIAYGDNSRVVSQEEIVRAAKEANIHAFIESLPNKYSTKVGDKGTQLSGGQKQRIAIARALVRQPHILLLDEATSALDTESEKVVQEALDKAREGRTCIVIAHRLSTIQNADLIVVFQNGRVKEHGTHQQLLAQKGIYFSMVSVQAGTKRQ

Structure (SMILES) | Activity [1] | Activity [2]
CC(=O)[C@H]1CC[C@H]2[C@@H]3CCC4=CC(=O)CC[C@]4(C)[C@H]3CC[C@]12C [PROGESTERONE] | is not a substrate [-] | inhibitor [+]
C[C@]12CCC(=O)C=C1CC[C@@H]1[C@@H]2[C@@H](O)C[C@]2(C=O)[C@@H](C(=O)CO)CC[C@@H]12 [ALDOSTERONE] | substrate [+] | 
C[C@]12CCC(=O)C=C1CC[C@@H]1[C@@H]2[C@@H](O)C[C@@]2(C)[C@H]1CC[C@]2(O)C(=O)CO [HYDROCORTISONE] | substrate [+] | 
